Laboratory results published in patent US20140348850A1, “METHOD FOR REDUCING BLOOD PRESSURE USING INHIBITORS OF PLASMA KALLIKREIN” (JOSLIN DIABETES CENTER, priority 2008, published 2014).

Experiments:
[1] = tested on: Ang-II-induced hypertension; assay: BP-lowering effect in Ang-II-induced rat hypertension model (telemetry); format: in vivo; settings: rats infused with Ang-II 300 ng/kg/min; ASP-440 16 ƒg/kg/hr by subcutaneous osmotic pump; vs Ang-II alone
From the text: FIG. 1 is a graph showing the time course of systolic blood pressure (SBP) measured using telemetry in rats infused with Ang-II in the absence or presence of ASP-440. * and † indicate p<0.05 for Day 0 vs Ang-II alone (n=4) and Ang-II+ASP-440 (n=7), respectively. ‡ indicates p<0.05 for Ang-II alone vs Ang-Il^+ ASP-440. NS indicates statistically non-significant change from Day 0.
Rats were infused continuously with Ang-II, and concurrently with either ASP-440 or vehicle control. Treatments were achieved by the use of subcutaneous implantation of two sets of Alzet mini-osmotic pumps (DURECT corporation, Cupertino Calif.), one containing Ang-II, the other containing either ASP-440 or vehicle control. Angll (EMD Chemicals Inc, La Jolla, Calif.) was delivered at 300 ng/kg/min. ASP-440 was delivered at 16 ƒg/kg/hr, and control pumps were filled with vehicle (10% polyethylene glycol, 90% phosphate-buffered saline).
Blood pressure measurements by telemetry were performed using PA-C40 transmitters (Data Sciences International, St. Paul, Minn.). […] Rats were housed individually on a receiver pad and blood pressure was monitored continuously. […] Baseline readings (Day 0) were obtained 48 hours after catheter implantation, following implantation of Alzet mini-pumps.

[2] = tested on: retinal vasculature of diabetic rats; assay: Retinal vessel diameters, mean circulation time and retinal blood flow in STZ-diabetic rats (video fluorescein angiography); format: in vivo, Sprague Dawley rats
Procedure: FIGS. 2A and 2B are graphs showing normalized retinal blood flow (FIG. 2A) and increased blood vessel diameter (FIG. 2B) following ASP-440 administration in diabetic rats.
We examined the effect of ASP-440 on retinal vessel diameters, mean circulation times (MCT), and retinal blood flow (RBF) in rats with diabetes. Diabetes was induced in Sprague Dawley rats with an intraperitoneal injection of 55 mg/kg of streptozotocin (STZ) (Sigma, St. Louis, Mo., USA) in 10 mmol/l citrate buffer, pH 4.5 after a 12 h fast. Diabetes was confirmed with blood glucose measurements (>14 mmol/l) 24 h after STZ injection. The rats were housed under standard conditions with free access to water and standard food. Two weeks after diabetes onset rats were implanted with a subcutaneous osmotic model 2002 Alzet pump containing either 12 mg/ml ASP-440 or saline vehicle. Rats were infused for 2 weeks at a rate of 0.5 μg/hr. Retinal vessel diameters and MCT was measured after 4 weeks of total diabetes duration and RBF was calculated as described by Horio et al. (Diabetologia 47:113-23, 2004).
To make the measurements described above, the following procedure was used. […] The recorded fluorescein angiograms were digitized on a frame-by-frame basis and analyzed densitometrically to determine retinal vessel diameters and retinal mean circulation times (MCTs), as described by Horio et al. (supra). […] Vessel diameters in units of pixels were determined during peak fluorescein arterial and venous filling times at the defined vessel sample sites using a boundary-crossing algorithm. The average diameter for each vessel was measured for each sample site. […] At the fixed vessel sites, the average vessel fluorescence within a sample area defined by the vessel width was measured on a frame-by-frame basis to generate temporal fluorescence intensity or dye dilution curves. The resultant artery and vein fluorescence data were fit to a log normal distribution function from which average arterial and venous circulation times were calculated. […]

[3] = 2 weeks subcutaneous pump infusion (12 mg/ml ASP-440), vs diabetic rats receiving vehicle

N=C(N)c1ccc(CNC(=O)c2cnn(Cc3ccccc3)c2)cc1 [ASP-440, 1-Benzyl-1H-pyrazole-4-carboxylic acid 4-carbamimidoyl-benzylamide]
blood pressure (systolic, telemetry) [1]: capable of reducing blood pressure
retinal blood flow (RBF) [2, 3]: increased RBF
retinal mean circulation time (MCT) [2, 3]: shortened MCT
retinal artery and vein diameters ([2]; 2 weeks subcutaneous pump infusion, vs nondiabetic rats and saline-treated diabetic rats): increased retinal artery and vein diameters
